Several values for one entry are separate records, joined by “and”; a condition that tells them apart may be missing. Identical values can stand only once. Counter-ions that a name gives are not always drawn.
Assay: Food and acidic beverage effect on bioavailability of ATR-101 tablets, 3-way crossover plasma PK study
Assay type: in vivo, human
Conditions: single oral 500 mg; for kel: in h-1
Protocol: To evaluate the effects of food and of an acidic beverage on bioavailability of ATR-101 tablets prepared according to Example 2 (see Table 2), an open-label, randomized, 3-period, 3-way crossover, 3-sequence study was carried out with fourteen healthy, adult, non-tobacco using male and female (non-childbearing potential only) human subjects.
Three different treatments A, B, and C were administered as follows:
Treatment A: 500 mg ATR-101 (1×500 mg tablet) administered with water at Hour 0 on Day 1 following an overnight fast.
Treatment B: 500 mg ATR-101 (1×500 mg tablet) administered with water at Hour 0, 30 minutes after the start of a high-fat breakfast, on Day 1.
Treatment C: 500 mg ATR-101 (1×500 mg tablet) administered with Coca-Cola® Classic at Hour 0 on Day 1 following an overnight fast.
On Day 1 of Period 1, subjects were randomized to one of 3 treatment sequences: ABC, BCA, or CBA. For Treatments A and B, ATR-101 was administered orally with approximately 240 mL of water. For Treatment C, ATR-101 was administered orally with approximately 240 mL of Coca-Cola® Classic. Water (except water provided with dosing for Treatments A and B) was restricted 1 hour prior to and 1 hour after each study drug administration, but was allowed ad libitum at all other times. Other fluids were given as part of the standard meals (including the breakfast administered prior to study drug dosing for Treatment B) and/or snacks, but were restricted at all other times (except for the Coca-Cola® Classic beverage provided with dosing in Treatment C) throughout the confinement period.
For Treatments A and C, subjects fasted overnight for at least 10 hours prior to study drug administration and continued the fast for at least 4 hours post-dose.
For Treatment B, subjects were required to fast overnight for at least 10 hours until 30 minutes prior to study drug administration, when they were given breakfast which was entirely consumed within 30 minutes. A representative breakfast includes 2 slices of buttered toast, 2 fried eggs, 2 strips of bacon, 4 oz of hash brown potatoes, and 240 mL of whole milk.
On Day 1 of each period, a standard lunch and dinner was provided at approximately 4 and 9 hours post-dose, respectively, and a snack was also offered at approximately 12 hours post-dose. On other days when confined in the CRU, standard meals and/or snacks were provided at appropriate times. When confined, subjects were required to fast from all food and drink except water between meals and snacks served at the clinical research unit.
Each meal and/or snack served at the clinical research unit was standardized and was similar in caloric content and composition (except for the meal served as part of Treatment B) and was taken at approximately the same time in each period.
For all subjects, blood samples for the determination of ATR-101 plasma concentration were collected at pre-dose and 0.5, 1, 1.5, 2, 2.5, 3, 3.5, 4, 5, 6, 8, 12, 16, 24, 36, and 48 hours post-dose. PK parameters for plasma ATR-101 were calculated as follows: • AUC0-t: The area under the plasma concentration-time curve, from time 0 to the last measurable non-zero concentration, was calculated by the linear trapezoidal method. • AUC0-inf: The area under the plasma concentration-time curve from time 0 extrapolated to infinity. AUC0-inf was calculated as the sum of AUC0-t plus the ratio of the last measurable plasma concentration to the elimination rate constant. • AUC%extrap: Percent of AUC0-inf extrapolated, represented as
[formula] • Cmax: Maximum observed concentration. • tmax: Time to reach Cmax. If the maximum value occurred at more than one time point, tmax was defined as the first time point with this value. • ke1: Apparent first-order terminal elimination rate constant calculated from a semi-log plot of the plasma concentration versus time curve. […]

[1] = Treatment A (fasting with water), Maximum
[2] = Treatment A (fasting with water), Mean
[3] = Treatment A (fasting with water), Median
[4] = Treatment A (fasting with water), Minimum
[5] = Treatment A (fasting with water), individual subject, hydrochloride
[6] = Treatment B (fed with water), Maximum
[7] = Treatment B (fed with water), Mean
[8] = Treatment B (fed with water), Median
[9] = Treatment B (fed with water), Minimum
[10] = Treatment B (fed with water, high-fat breakfast), individual subject, hydrochloride
[11] = Treatment C (fasting with acidic beverage), Maximum
[12] = Treatment C (fasting with acidic beverage), Mean
[13] = Treatment C (fasting with acidic beverage), Median
[14] = Treatment C (fasting with acidic beverage), Minimum

SMILES: CC(C)c1cccc(C(C)C)c1NC(=O)NCC1(c2ccc(N(C)C)cc2)CCCC1 [ATR-101, N-(2,6-bis(1-methylethyl)phenyl)-N′-((1-(4-(dimethylamino)-phenyl)cyclopentyl)methyl)urea hydrochloride]
- AUC0-inf [1]: 5050 ng·h/mL
- AUC0-t [1]: 4860 ng·h/mL
- AUC% extrap [1]: 12.7%
- Cmax [1]: 933 ng/mL
- t1/2 [1]: 22.7 h
- tmax [1]: 12.0 h
- kel [1]: 0.0612
- AUC% extrap [2]: 8.64%
- kel [2]: 0.0406
- AUC% extrap [3]: 9.43%
- kel [3]: 0.0380
- AUC0-inf [4]: 2430 ng·h/mL
- AUC0-t [4]: 840 ng·h/mL
- AUC% extrap [4]: 3.72%
- Cmax [4]: 26.1 ng/mL
- t1/2 [4]: 11.3 h
- tmax [4]: 1.50 h
- kel [4]: 0.0305
- AUC0-inf [5]: 2740 and 4290 and 2630 and 2430 and 5050 and 2560 and 4700 and 4940 and 4370
- AUC0-t [5]: 2450 and 3180 and 3810 and 2490 and 840 and 2200 and 4860 and 2330 and 1520 and 4100 and 4400 and 3880
- AUC% extrap [5]: 10.6% and 6.68% and 11.2% (2×) and 5.32% and 9.43% and 3.72% and 8.82% and 12.7% and 4.61% and 10.8%
- Cmax [5]: 509 ng/mL and 620 ng/mL and 807 ng/mL and 26.1 ng/mL and 612 ng/mL and 539 ng/mL and 306 ng/mL and 526 ng/mL and 486 ng/mL and 933 ng/mL and 842 ng/mL
- tmax [5]: 2.5 h and 1.50 h and 12.0 h and 1.5 h and 3.00 h
- kel [5]: 0.0378 and 0.0414 and 0.0347 and 0.0456 and 0.0380 and 0.0612 and 0.0404 and 0.0317 and 0.0531 and 0.0305 and 0.0318
- AUC0-inf [6]: 14000 ng·h/mL
- AUC0-t [6]: 13200 ng·h/mL
- AUC% extrap [6]: 17.9%
- Cmax [6]: 2060 ng/mL
- t1/2 [6]: 30.7 h
- tmax [6]: 5.00 h
- kel [6]: 0.0603
- AUC% extrap [7]: 8.00%
- kel [7]: 0.0364
- AUC% extrap [8]: 7.27%
- kel [8]: 0.0366
- AUC0-inf [9]: 3790 ng·h/mL
- AUC0-t [9]: 3520 ng·h/mL
- AUC% extrap [9]: 2.07%
- Cmax [9]: 719 ng/mL
- t1/2 [9]: 11.5 h
- tmax [9]: 1.50 h
- kel [9]: 0.0226
- AUC0-inf [10]: 3790 and 6400 and 14000 and 5390 and 4540 and 7640 and 9000 and 7660 and 7670 and 5830 and 5820 and 4900 and 9990 and 7210
- AUC0-t [10]: 3520 and 5930 and 13200 and 5280 and 4120 and 6890 and 8430 and 6810 and 6290 and 5420 and 5310 and 4740 and 9300 and 6570
- AUC% extrap [10]: 7.07% and 7.35% and 5.87% and 2.07% and 9.33% and 9.87% and 6.38% and 1.1% and 17.9% and 7.19% and 8.76% and 3.35% and 6.89% and 8.80%
- Cmax [10]: 1040 ng/mL and 1620 ng/mL and 2060 ng/mL and 1120 ng/mL and 848 ng/mL and 1340 ng/mL and 2000 ng/mL and 1210 ng/mL and 931 ng/mL and 719 ng/mL and 759 ng/mL and 1690 ng/mL and 993 ng/mL
- t1/2 [10]: 19.3 h and 20.9 h and 16.9 h and 11.5 h and 25.1 h and 27.8 h and 18.0 h and 24.9 h and 30.7 h and 17.4 h and 23.9 h and 13.2 h and 17.7 h and 18.6 h
- tmax [10]: 1.50 h and 2.50 h and 3.00 h and 5.00 h and 4.01 h and 3.57 h
- kel [10]: 0.0359 and 0.0332 and 0.0410 and 0.0603 and 0.0276 and 0.0249 and 0.0385 and 0.0278 and 0.0226 and 0.0398 and 0.0290 and 0.0526 and 0.0392 and 0.0374
- AUC0-inf [11]: 6970 ng·h/mL
- AUC0-t [11]: 6430 ng·h/mL
- AUC% extrap [11]: 21.5%
- Cmax [11]: 1550 ng/mL
- t1/2 [11]: 27.9 h
- tmax [11]: 6.00 h
- kel [11]: 0.0501
- AUC% extrap [12]: 10.6%
- kel [12]: 0.0377
- AUC% extrap [13]: 8.95%
- kel [13]: 0.0376
- AUC0-inf [14]: 728 ng·h/mL
- AUC0-t [14]: 572 ng·h/mL
- AUC% extrap [14]: 3.84%
- Cmax [14]: 19.8 ng/mL
- t1/2 [14]: 13.8 h

From patent publication US20220117919A1, “ENHANCED BIOAVAILABILITY OF N-(2,6-BIS(1-METHYLETHYL)PHENYL)-N'-((1-(4-(DIMETHYLAMINO)-PHENYL)CYCLOPENTYL)METHYL)UREA HYDROCHLORIDE” (The Regents of the University of Michigan, priority 2015, published 2022)
